Our source for the TGI values is PubChem BioAssay (NCI).

The structures appear in SMILES notation.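 96-well plates; 48 h exposure; 5 concentrations. Endpoints by linear interpolation between flanking doses. Not reached: highest tested concentration assigned. At the TGI there is no net growth.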 *1 amine or outer side, *2 acyl side, *3 side chain or, on linkers, in order; H or OH if unused. Where a SMILES comes first, the peptide text is derived from it. [ ]: non-standard residue; d: D form. The star is where a group is joined. X31 = CC(=O)N(C)SCC(N[*:1])C(=O)[*:2]; X47 = CC(=O)N(C)SCC(N*)/C(O)=N\O; Cbz = O=C(OCc1ccccc1)*; Bn = c1ccc(C*)cc1; For = O=C*

Among the test systems are IGROV1 ovarian; 786-0 renal; M14 melanoma; PC-3 prostate; OVCAR-8 ovarian; UACC-257 melanoma; SF-295 CNS; SF-268 CNS; NCI-H522 lung; MDA-MB-231 breast; SF-539 CNS; NCI-H460 lung; TK-10 renal; CCRF-CEM leukemia; SK-MEL-28 melanoma; DU-145 prostate; SK-MEL-5 melanoma; MDA-N; HOP-62 NSCLC; T-47D breast.
What all share (experiment): NCI-60 cell line screen, 48 h

On to `COc1ccc(/C=C2\CCCC(CN(C)C)C2=O)cc1` (stereo not given), for which the TGI came out at 7.51 µM in the assay on IGROV1 ovarian; 3.47 µM in the assay on 786-0 renal; 4.21 µM with M14 melanoma; 18.4 µM in the assay with PC-3 prostate; 26.4 µM in the assay with OVCAR-8 ovarian; 8.96 µM in the assay on UACC-257 melanoma. Further, the TGI in the assay with SF-295 CNS amounted to 36.8 µM; with SF-268 CNS, 11 µM; in the assay on NCI-H522 lung, 2.85 µM; in the assay with MDA-MB-231 breast it was 8.61 µM; in the assay with SF-539 CNS, 31.1 µM; with NCI-H460 lung, 48.4 µM. Moreover, the TGI is 9.45 µM in the assay on TK-10 renal; above 100 µM in the assay on CCRF-CEM leukemia; 3.77 µM in the assay with SK-MEL-28 melanoma; 30.2 µM with DU-145 prostate; 28.8 µM in the assay on SK-MEL-5 melanoma; 8.5 µM in the assay on MDA-N. In addition, the TGI in the assay with HOP-62 NSCLC turned out to be 35.7 µM; with T-47D breast, 7.72 µM.
Regarding `CC(=O)N(C)SCC(NC(=O)C(Cc1ccccc1)NC(=O)OCc1ccccc1)C(=O)NC(Cc1ccccc1)C(=O)NC(Cc1cn(C=O)c2ccccc12)C(=O)NC(CCCCNC(=O)OCc1ccccc1)C(=O)NC(C(=O)NC(CSN(C)C(C)=O)/C(O)=N\O)C(C)OCc1ccccc1` (stereo not given) (Cbz-F[X31]FW(For)K(Cbz)T(Bn)-X47; configuration not given here), the TGI in the assay on IGROV1 ovarian, in the assay with 786-0 renal, in the assay with M14 melanoma, in the assay with PC-3 prostate, in the assay on OVCAR-8 ovarian and in the assay with UACC-257 melanoma was above 100 µM throughout. The TGI with SF-295 CNS, in the assay with SF-268 CNS, with NCI-H522 lung, in the assay with MDA-MB-231 breast, with SF-539 CNS and with NCI-H460 lung was above 100 µM each time. In addition, the TGI in the assay on TK-10 renal, in the assay on CCRF-CEM leukemia, in the assay on SK-MEL-28 melanoma, in the assay with DU-145 prostate, in the assay with SK-MEL-5 melanoma and with MDA-N was above 100 µM each time. The TGI with HOP-62 NSCLC and in the assay with T-47D breast was above 100 µM throughout.
For the compound `Cc1c(NC(=S)NN)c(=O)n(-c2ccccc2)n1C`, the TGI in the assay with IGROV1 ovarian, in the assay with 786-0 renal, with M14 melanoma, with PC-3 prostate, with OVCAR-8 ovarian and with UACC-257 melanoma was above 100 µM each time. Besides, the TGI in the assay with SF-295 CNS, in the assay with SF-268 CNS, in the assay with NCI-H522 lung, with MDA-MB-231 breast, in the assay with SF-539 CNS and with NCI-H460 lung was above 100 µM in each case. For the same compound, the TGI with TK-10 renal, with CCRF-CEM leukemia, in the assay with SK-MEL-28 melanoma, in the assay on DU-145 prostate, with SK-MEL-5 melanoma and in the assay with MDA-N was above 100 µM each time. Further, the TGI in the assay on HOP-62 NSCLC and in the assay with T-47D breast was above 100 µM in each case.
In the case of `N#Cc1c(N2CCCC2)nsc1NCc1ccccc1`, the TGI with IGROV1 ovarian, with 786-0 renal, in the assay on M14 melanoma, in the assay with PC-3 prostate, in the assay on OVCAR-8 ovarian and in the assay on UACC-257 melanoma was above 100 µM in each case. The TGI with SF-295 CNS, with SF-268 CNS, in the assay with NCI-H522 lung, with MDA-MB-231 breast, in the assay with SF-539 CNS and in the assay on NCI-H460 lung was above 100 µM each time. In addition, the TGI in the assay on TK-10 renal, in the assay with CCRF-CEM leukemia, in the assay on SK-MEL-28 melanoma, in the assay with DU-145 prostate, in the assay on SK-MEL-5 melanoma and in the assay on MDA-N was above 100 µM in each case. Moreover, the TGI in the assay with HOP-62 NSCLC and in the assay with T-47D breast was above 100 µM each time.
Consider `Cc1ccc(C2=Nc3cc(C)c(Cl)cc3S(=O)(=O)NN2)cc1`, for which the TGI in the assay with IGROV1 ovarian, in the assay on 786-0 renal, in the assay on M14 melanoma, in the assay with PC-3 prostate, in the assay on OVCAR-8 ovarian and in the assay with UACC-257 melanoma was above 100 µM each time. Further, the TGI with SF-295 CNS, in the assay on SF-268 CNS, in the assay with NCI-H522 lung, with MDA-MB-231 breast, with SF-539 CNS and with NCI-H460 lung was above 100 µM each time. Further, the TGI in the assay on TK-10 renal, with CCRF-CEM leukemia, in the assay with SK-MEL-28 melanoma, in the assay with DU-145 prostate, in the assay with SK-MEL-5 melanoma and in the assay with MDA-N was above 100 µM in each case. In addition, the TGI in the assay with HOP-62 NSCLC and in the assay on T-47D breast was above 100 µM throughout.
In the case of `CCOC(=O)c1c2c3c(cccc3[nH]c1=O)Sc1ncccc1-2`, the TGI with IGROV1 ovarian is 61 µM; with 786-0 renal, above 100 µM; in the assay with M14 melanoma, above 100 µM; with PC-3 prostate it was 74.6 µM; with OVCAR-8 ovarian it was above 100 µM; in the assay on UACC-257 melanoma, above 100 µM. For the same compound, the TGI is 95.3 µM in the assay with SF-295 CNS; above 100 µM with SF-268 CNS; 83.8 µM in the assay on NCI-H522 lung; above 100 µM in the assay on MDA-MB-231 breast; above 100 µM with SF-539 CNS; above 100 µM in the assay with NCI-H460 lung. Besides, the TGI was above 100 µM with TK-10 renal; above 100 µM in the assay on CCRF-CEM leukemia; above 100 µM with SK-MEL-28 melanoma; above 100 µM in the assay on DU-145 prostate; 24 µM with SK-MEL-5 melanoma; above 100 µM in the assay with MDA-N. Moreover, the TGI with HOP-62 NSCLC and in the assay on T-47D breast was above 100 µM throughout.
Take `C=CCN1CCC(OC(=O)C(O)(C#CC)C2CCCC2)CC1` (stereo not given): the TGI in the assay on IGROV1 ovarian, with 786-0 renal, in the assay with M14 melanoma, in the assay on PC-3 prostate, in the assay with OVCAR-8 ovarian and in the assay with UACC-257 melanoma was above 100 µM in each case. The TGI in the assay with SF-295 CNS, in the assay on SF-268 CNS, in the assay with NCI-H522 lung, with MDA-MB-231 breast, in the assay on SF-539 CNS and in the assay on NCI-H460 lung was above 100 µM in each case. Also, the TGI with TK-10 renal, in the assay on CCRF-CEM leukemia, with SK-MEL-28 melanoma, with DU-145 prostate, in the assay on SK-MEL-5 melanoma and in the assay with MDA-N was above 100 µM each time. The TGI in the assay on HOP-62 NSCLC and in the assay with T-47D breast was above 100 µM throughout.
As to `CC(=O)OC1=c2ccccc2=C(O)C2C1C=NN2C(C)=O` (stereo not given), the TGI in the assay on IGROV1 ovarian, in the assay on 786-0 renal, with M14 melanoma, in the assay with PC-3 prostate, in the assay with OVCAR-8 ovarian and in the assay on UACC-257 melanoma was above 100 µM throughout. In addition, the TGI with SF-295 CNS, in the assay with SF-268 CNS, in the assay with NCI-H522 lung, with MDA-MB-231 breast, in the assay on SF-539 CNS and in the assay on NCI-H460 lung was above 100 µM each time. Moreover, the TGI with TK-10 renal, with CCRF-CEM leukemia, in the assay with SK-MEL-28 melanoma, in the assay on DU-145 prostate, in the assay on SK-MEL-5 melanoma and in the assay with MDA-N was above 100 µM each time. Further, the TGI in the assay on HOP-62 NSCLC and in the assay with T-47D breast was above 100 µM throughout.
Consider `CC1(C)CC(=O)C(CCC(=O)/C=C/c2ccccc2)C(=O)C1`, for which the TGI in the assay with IGROV1 ovarian, in the assay on 786-0 renal, with M14 melanoma, with PC-3 prostate, in the assay on OVCAR-8 ovarian and with UACC-257 melanoma was above 100 µM in each case. Further, the TGI in the assay on SF-295 CNS, in the assay on SF-268 CNS, in the assay with NCI-H522 lung, in the assay on MDA-MB-231 breast, in the assay with SF-539 CNS and in the assay on NCI-H460 lung was above 100 µM throughout. In addition, the TGI with TK-10 renal, in the assay on CCRF-CEM leukemia, in the assay on SK-MEL-28 melanoma, in the assay with DU-145 prostate, with SK-MEL-5 melanoma and in the assay on MDA-N was above 100 µM in each case. For the same compound, the TGI with HOP-62 NSCLC and in the assay with T-47D breast was above 100 µM throughout.
For `O=C1c2c(Cl)c(Cl)c(Cl)c(Cl)c2C(=O)N1CCN(c1c(Cl)ssc1=O)c1c(Cl)ssc1=O`, the TGI with IGROV1 ovarian is above 100 µM; in the assay with 786-0 renal, 32.8 µM; in the assay on M14 melanoma it was 46.2 µM; in the assay with PC-3 prostate, 56.8 µM; in the assay on OVCAR-8 ovarian it was 44.6 µM; with UACC-257 melanoma, 31.5 µM. Also, the TGI in the assay on SF-295 CNS is above 100 µM; in the assay on SF-268 CNS, above 100 µM; with NCI-H522 lung, 57.8 µM; in the assay on MDA-MB-231 breast, above 100 µM; in the assay on SF-539 CNS, 35.4 µM; in the assay on NCI-H460 lung, above 100 µM. Moreover, the TGI in the assay on TK-10 renal was 33.5 µM; in the assay on CCRF-CEM leukemia it was 72 µM; in the assay with SK-MEL-28 melanoma it was above 100 µM; in the assay with DU-145 prostate, 36.7 µM; in the assay on SK-MEL-5 melanoma it was above 100 µM; in the assay on MDA-N, 33.3 µM. For the same compound, the TGI in the assay on HOP-62 NSCLC was above 100 µM; with T-47D breast, 44.5 µM.
